Data taken from paper PMC7093416, “Selective USP7 inhibition elicits cancer cell killing through a p53-dependent mechanism” (Scientific Reports, 2020).
Several values for one entry are separate records, joined by “and”; a condition that tells them apart may be missing. Equal values may be shown once.

System: panel of 484 cancer cell lines
Assay: PRISM cancer cell line profiling, 5 days
Type: cell-based
Design: Viability: scale not given here; AUC: unit not given beside the values
Procedure: Cancer cell line profiling was performed using the Broad’s PRISM platform. Cell treatment and data analysis were performed as described in Yu et al[42]. Raw Luminex signal was converted to AUC values for each cell line as described. The resulting AUC profile for each compound was modeled against DepMap using the limma package in R[71]. Because hotspot mutation analysis was performed against DepMap, TP53 annotations in Fig. 6c,d are directly from DepMap.

[1] = 8MGBA_CENTRAL_NERVOUS_SYSTEM, pert_dose 6.10E-04
[2] = 253J_URINARY_TRACT, pert_dose 6.10E-04
[3] = 786O_KIDNEY, pert_dose 6.10E-04
[4] = 8305C_THYROID, pert_dose 6.10E-04
[5] = 8505C_THYROID, pert_dose 6.10E-04
[6] = A172_CENTRAL_NERVOUS_SYSTEM, pert_dose 6.10E-04
[7] = ACHN_KIDNEY, pert_dose 6.10E-04
[8] = AN3CA_ENDOMETRIUM, pert_dose 6.10E-04
[9] = ASPC1_PANCREAS, pert_dose 6.10E-04
[10] = BC3C_URINARY_TRACT, pert_dose 6.10E-04
[11] = BECKER_CENTRAL_NERVOUS_SYSTEM, pert_dose 6.10E-04
[12] = BFTC905_URINARY_TRACT, pert_dose 6.10E-04
[13] = BFTC909_KIDNEY, pert_dose 6.10E-04
[14] = BICR6_UPPER_AERODIGESTIVE_TRACT, pert_dose 6.10E-04
[15] = BICR16_UPPER_AERODIGESTIVE_TRACT, pert_dose 6.10E-04

`COc1ccc(C2=N[C@@H](c3ccc(Cl)cc3)[C@@H](c3ccc(Cl)cc3)N2C(=O)N2CCNC(=O)C2)c(OC(C)C)c1` [Nutlin-3A] was tested, and the AUC (8MGBA_CENTRAL_NERVOUS_SYSTEM) was 1.128, the “MFI 8MGBA_CENTRAL_NERVOUS_SYSTEM” value [1] was 9934 and 14986 and 8645 and 10478 and 11554 and the Viability [1] was 0.9428. For the same compound, the AUC (22RV1_PROSTATE) was 1.096, the AUC (42MGBA_CENTRAL_NERVOUS_SYSTEM) was 1.109 and the “MFI 42MGBA_CENTRAL_NERVOUS_SYSTEM” value (42MGBA_CENTRAL_NERVOUS_SYSTEM, pert_dose 6.10E-04) was 4116 and 5824 and 3462 and 5974.5 and 4899. The AUC (253JBV_URINARY_TRACT) was 0.9024, the AUC (253J_URINARY_TRACT) was 0.9134 and the “MFI 253J_URINARY_TRACT” value [2] was 13400 and 14082 and 16791.5 and 16677.5 and 16246. It also gave a Viability [2] of 0.9155, an AUC (639V_URINARY_TRACT) of 1.087 and an AUC (647V_URINARY_TRACT) of 1.106. The “MFI 647V_URINARY_TRACT” value (647V_URINARY_TRACT, pert_dose 6.10E-04) was 28744 and 33002 and 29259 and 22669.5 and 34567, the AUC (769P_KIDNEY) was 0.9079 and the AUC (786O_KIDNEY) was 1.095. The “MFI 786O_KIDNEY” value [3] was 5233.5 and 8009.5 and 6751 and 6471 and 5976.5, the Viability [3] was 0.8974 and the AUC (5637_URINARY_TRACT) was 1.131. The “MFI 5637_URINARY_TRACT” value (5637_URINARY_TRACT, pert_dose 6.10E-04) was 5164 and 5198 and 5608 and 5118 and 4250, the AUC (8305C_THYROID) was 1.086 and the “MFI 8305C_THYROID” value [4] was 12807.5 and 11646.5 and 14452 and 19016 and 21699. The Viability [4] was 0.9334, the AUC (8505C_THYROID) was 1.09 and the “MFI 8505C_THYROID” value [5] was 8489.5 and 8271 and 7453 and 9513 and 9868. It also gave a Viability [5] of 1.233, an AUC (2313287_STOMACH) of 1.164 and an AUC (A101D_SKIN) of 0.8317. The AUC (A172_CENTRAL_NERVOUS_SYSTEM) was 0.8527, the “MFI A172_CENTRAL_NERVOUS_SYSTEM” value [6] was 9637 and 10480 and 8488 and 7646 and 8288 and the Viability [6] was 1.171. For the same compound, the AUC (A204_SOFT_TISSUE) was 0.961, the “MFI A204_SOFT_TISSUE” value (A204_SOFT_TISSUE, pert_dose 6.10E-04) was 193.5 and 222 and 295.5 and 243.5 and 208 and the AUC (A375_SKIN) was 0.8657. For the same compound, the “MFI A375_SKIN” value (A375_SKIN, pert_dose 6.10E-04) was 6835.5 and 8654.5 and 5268 and 5613 and 4840.5, the Viability (A375_SKIN, pert_dose 6.10E-04) was 1.106 and the AUC (A549_LUNG) was 0.859. The “MFI A549_LUNG” value (A549_LUNG, pert_dose 6.10E-04) was 9119 and 8938 and 13071.5 and 13916 and 10911, the Viability (A549_LUNG, pert_dose 6.10E-04) was 1.178 and the AUC (A673_BONE) was 1.118. For the same compound, the AUC (A704_KIDNEY) was 0.9164, the AUC (A2058_SKIN) was 1.115 and the “MFI A2058_SKIN” value (A2058_SKIN, pert_dose 6.10E-04) was 18135 and 19395 and 19549.5 and 22935 and 20108. The Viability (A2058_SKIN, pert_dose 6.10E-04) was 1.165, the AUC (A2780_OVARY) was 0.8149 and the “MFI A2780_OVARY” value (A2780_OVARY, pert_dose 6.10E-04) was 18911 and 15634 and 16575 and 14170.5 and 15163.5. The AUC (ABC1_LUNG) was 1.193, the AUC (ACCMESO1_PLEURA) was 1.068 and the AUC (ACHN_KIDNEY) was 0.8632. The “MFI ACHN_KIDNEY” value [7] was 12459.5 and 11580 and 11974.5 and 13015.5 and 8174, the Viability [7] was 1.255 and the AUC (AGS_STOMACH) was 1.099. For the same compound, the “MFI AGS_STOMACH” value (AGS_STOMACH, pert_dose 6.10E-04) was 33881 and 40936.5 and 34938 and 35658 and 38326, the AUC (AN3CA_ENDOMETRIUM) was 1.0825 and the “MFI AN3CA_ENDOMETRIUM” value [8] was 6120 and 10572 and 7019 and 6758 and 9328. For the same compound, the Viability [8] was 0.9599, the AUC (ASPC1_PANCREAS) was 1.065 and the “MFI ASPC1_PANCREAS” value [9] was 18934.5 and 23594 and 20951.5 and 18601 and 21238. For the same compound, the Viability [9] was 1.138, the AUC (BC3C_URINARY_TRACT) was 1.147 and the “MFI BC3C_URINARY_TRACT” value [10] was 12791.5 and 13915 and 8459 and 10458.5 and 8646. It also gave a Viability [10] of 1.328, an AUC (BCPAP_THYROID) of 1.122 and an AUC (BECKER_CENTRAL_NERVOUS_SYSTEM) of 1.117. For the same compound, the “MFI BECKER_CENTRAL_NERVOUS_SYSTEM” value [11] was 24187 and 19210 and 17010 and 22220 and 21019.5, the Viability [11] was 1.525 and the AUC (BEN_LUNG) was 1.146. For the same compound, the “MFI BEN_LUNG” value (BEN_LUNG, pert_dose 6.10E-04) was 7960 and 8798 and 6007 and 9178 and 9972.5, the Viability (BEN_LUNG, pert_dose 6.10E-04) was 1.0724 and the AUC (BFTC905_URINARY_TRACT) was 1.2069. The “MFI BFTC905_URINARY_TRACT” value [12] was 6936 and 8493 and 9950.5 and 8885 and 6674.5, the Viability [12] was 0.7676 and the AUC (BFTC909_KIDNEY) was 1.167. The “MFI BFTC909_KIDNEY” value [13] was 11810 and 18038 and 14602 and 12914 and 16966, the Viability [13] was 1.223 and the AUC (BHT101_THYROID) was 1.133. The AUC (BICR6_UPPER_AERODIGESTIVE_TRACT) was 1.14, the “MFI BICR6_UPPER_AERODIGESTIVE_TRACT” value [14] was 13342 and 11342 and 11621 and 10074.5 and 14217 and the Viability [14] was 1.497. The AUC (BICR16_UPPER_AERODIGESTIVE_TRACT) was 1.202, the “MFI BICR16_UPPER_AERODIGESTIVE_TRACT” value [15] was 5443.5 and 5515 and 3801.5 and 7225 and 7467 and the Viability [15] was 1.266. For the same compound, the AUC (BICR31_UPPER_AERODIGESTIVE_TRACT) was 1.128, the “MFI BICR31_UPPER_AERODIGESTIVE_TRACT” value (BICR31_UPPER_AERODIGESTIVE_TRACT, pert_dose 6.10E-04) was 17717 and 15090 and 19092 and 15830 and 14976 and the AUC (BICR56_UPPER_AERODIGESTIVE_TRACT) was 1.158. It also gave an AUC (BT474_BREAST) of 1.172, an AUC (BT549_BREAST) of 1.133 and an AUC (BXPC3_PANCREAS) of 1.49. It also gave an AUC (CADOES1_BONE) of 1.1262, a Viability (CADOES1_BONE, pert_dose 6.10E-04) of 1.326 and an AUC (CAKI1_KIDNEY) of 0.8906. For the same compound, the “MFI CAKI1_KIDNEY” value (CAKI1_KIDNEY, pert_dose 6.10E-04) was 21451 and 18142 and 20425 and 19719.5 and 25262.5.
